Experimental data taken from patent publication US9994594B2, “Inhibitors of arginase and their therapeutic applications” (MARS, INCORPORATED, priority 2010, dated 2018).
Where a name gives a salt, the structure may show the parent alone. Read-outs that look alike come from different tables or passages of the source.

What was measured:
[1] = molecular target: T1, arginase II (ARG II) (Homo sapiens, UniProt P78540); assay: Inhibition of arginase II, spectrophotometric urea assay at 530 nm; type: biochemical
T1 sequence (P78540 23-354): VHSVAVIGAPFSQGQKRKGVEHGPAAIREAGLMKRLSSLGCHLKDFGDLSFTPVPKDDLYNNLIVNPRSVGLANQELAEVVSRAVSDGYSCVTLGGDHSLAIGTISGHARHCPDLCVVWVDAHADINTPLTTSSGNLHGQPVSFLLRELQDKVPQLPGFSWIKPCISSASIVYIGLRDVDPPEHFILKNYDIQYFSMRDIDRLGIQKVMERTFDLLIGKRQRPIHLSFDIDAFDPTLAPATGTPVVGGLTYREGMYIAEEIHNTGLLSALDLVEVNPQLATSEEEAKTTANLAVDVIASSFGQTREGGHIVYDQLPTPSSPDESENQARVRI
How it was run: (§1)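 IC50 was derived by regression of OD530 normalized to uninhibited-enzyme controls against log concentration. Urea from 60-min, 37 °C turnover of L-arginine with manganese sulfate was detected after acid o-phthaldialdehyde/primaquine quench and 10 min colour development. Arginase I and II came from 100 ng/ml stocks in pH 7.4 phosphate with ovalbumin.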

[2] = molecular target: T2, human arginase I (ARG I) (Homo sapiens, UniProt P05089); assay: Inhibition of arginase I, spectrophotometric urea assay at 530 nm; type: biochemical; conditions: read-out: Potency (ARG I)
T2 sequence (P05089 1-322): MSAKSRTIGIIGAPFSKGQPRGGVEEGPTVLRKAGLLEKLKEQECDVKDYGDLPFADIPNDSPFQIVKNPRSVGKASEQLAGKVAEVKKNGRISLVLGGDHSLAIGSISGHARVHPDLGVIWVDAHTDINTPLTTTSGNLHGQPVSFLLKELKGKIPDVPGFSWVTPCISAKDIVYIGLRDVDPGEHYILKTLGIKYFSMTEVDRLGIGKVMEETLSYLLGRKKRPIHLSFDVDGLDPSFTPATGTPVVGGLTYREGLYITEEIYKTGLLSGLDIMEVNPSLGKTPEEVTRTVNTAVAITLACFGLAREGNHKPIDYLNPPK
How it was run: as §1

[3] = Formula II compounds, Table 2-A, read-out: Potency (ARG)
[4] = Formula II compounds, Table 2-A
[5] = Formula I compounds, Table 2, read-out: Potency (ARG II)

SMILES	IC50 [1, 3] [nM]	IC50 [2, 4] [nM]	IC50 [1, 5] [nM]	IC50 ([2]; Formula I compounds, Table 2) [nM]
NC(CCCCB(O)O)(C(=O)O)C1CCN(Cc2ccc3ccccc3c2)CC1 (stereo not drawn) [Example 99-A, 2-amino-6-borono-2-(1-(naphthalen-2-ylmethyl)piperidin-4-yl)hexanoic acid dihydrochloride]	0.1 to 250	0.1 to 250	–	–
NC(CCCCB(O)O)(C(=O)O)C1CCN(CCCc2ccccc2)CC1 (stereo not drawn) [Example 102-A, 2-amino-6-borono-2-(1-(3-phenylpropyl)piperidin-4-yl)hexanoic acid dihydrochloride]	0.1 to 250	0.1 to 250	–	–
N[C@](CCCCB(O)O)(CCN1Cc2ccccc2C[C@H]1CO)C(=O)O [compound 1, (R)-2-amino-6-borono-2-(2-((S)-3-(hydroxymethyl)-3,4-dihydroisoquinolin-2(1H)-yl)ethyl)hexanoic acid dihydrochloride]	–	–	251 to 1000	251 to 1000
COC[C@@H]1CCCN1CC[C@](N)(CCCCB(O)O)C(=O)O [compound 2, (R)-2-amino-6-borono-2-(2-((S)-2-(methoxymethyl)pyrrolidin-1-yl)ethyl)hexanoic acid dihydrochloride]	–	–	251 to 1000	251 to 1000
N[C@](CCCCB(O)O)(CCN1CCC[C@H](O)C1)C(=O)O [compound 5, (R)-2-amino-6-borono-2-(2-((S)-3-hydroxypiperidin-1-yl)ethyl)hexanoic acid dihydrochloride]	–	–	2000 to 5000	1000 to 2000
COc1ccc(CCN(C)CC[C@](N)(CCCCB(O)O)C(=O)O)cc1OC [compound 6, (R)-2-amino-6-borono-2-(2-((3,4-dimethoxyphenethyl)(methyl)amino)ethyl)hexanoic acid dihydrochloride]	–	–	1000 to 2000	251 to 1000
N[C@](CCCCB(O)O)(CCN1CC[C@@H](CO)C1)C(=O)O [compound 7, (R)-2-amino-6-borono-2-(2-((R)-3-(hydroxymethyl)pyrrolidin-1-yl)ethyl)hexanoic acid dihydrochloride]	–	–	251 to 1000	0.1 to 250
CN(CCc1ccccc1)CC[C@](N)(CCCCB(O)O)C(=O)O [compound 11, (R)-2-amino-6-borono-2-(2-(methyl(phenethyl)amino)ethyl) hexanoic acid dihydrochloride]	–	–	0.1 to 250	0.1 to 250
CN(CC[C@](N)(CCCCB(O)O)C(=O)O)C[C@@H](O)c1cccc(O)c1 [compound 12, (R)-2-amino-6-borono-2-(2-(((S)-2-hydroxy-2-(3-hydroxyphenyl)ethyl)(methyl)amino)ethyl)hexanoic acid dihydrochloride]	–	–	0.1 to 250	0.1 to 250
N[C@](CCCCB(O)O)(CCN1CCCCC1)C(=O)O [compound 13, (R)-2-amino-6-borono-2-(2-(piperidin-1-yl)ethyl)hexanoic acid]	–	–	251 to 1000	0.1 to 250
C=CCC(N)(CCCCB(O)O)C(=O)O (stereo not drawn) [compound 14, 2-allyl-2-amino-6-boronohexanoic acid]	–	–	> 5000	43
CC[C@](N)(CCCCB(O)O)C(=O)O [compound 15, (S)-2-amino-6-borono-2-ethylhexanoic acid hydrochloride]	–	–	2000 to 5000	2000 to 5000
NC(CCCCB(O)O)(CCN(CCO)Cc1ccccc1)C(=O)O (stereo not drawn) [compound 20, 2-Amino-2-{2-[benzyl-(2-hydroxyethyl)-amino]-ethyl}-6-borono-hexanoic acid dihydrochloride]	–	–	2000 to 5000	2000 to 5000
NC(CCCCB(O)O)(CCN1CCC(C(=O)O)CC1)C(=O)O (stereo not drawn) [compound 21, 1-(3-amino-7-borono-3-carboxyheptyl)piperidine-4-carboxylic acid]	–	–	1000 to 2000	1000 to 2000
COc1cc2c(cc1OC)CN(CCC(N)(CCCCB(O)O)C(=O)O)CC2 (stereo not drawn) [compound 26, 2-Amino-6-borono-2-[2-(6,7-dimethoxy-3,4-dihydro-1H-isoquinolin-2-yl)ethyl]-hexanoic acid dihydrochloride]	–	–	251 to 1000	251 to 1000

More lines, now with the values ahead:

IC50 [1, 3] [nM]	IC50 [2, 4] [nM]	IC50 [1, 5] [nM]	IC50 ([2]; Formula I compounds, Table 2) [nM]	SMILES
251 to 1000	251 to 1000	–	–	NC(CCCCB(O)O)(C(=O)O)C1CCN(Cc2ccc(Cl)cc2Cl)CC1 (stereo not drawn) [Example 97-A, 2-amino-6-borono-2-(1-(2,4-dichlorobenzyl)piperidin-4-yl)hexanoic acid dihydrochloride]
0.1 to 250	0.1 to 250	–	–	NC(CCCCB(O)O)(C(=O)O)C1CCN(Cc2cccc3ccccc23)CC1 (stereo not drawn) [Example 98-A, 2-amino-6-borono-2-(1-(naphthalen-1-ylmethyl)piperidin-4-yl)hexanoic acid dihydrochloride]
0.1 to 250	0.1 to 250	–	–	NC(CCCCB(O)O)(C(=O)O)C1CCN(Cc2ccc(OC(F)(F)F)cc2)CC1 (stereo not drawn) [Example 100-A, 2-amino-6-borono-2-(1-(4-(trifluoromethoxy)benzyl)piperidin-4-yl)hexanoic acid dihydrochloride]
0.1 to 250	251 to 1000	–	–	CCCN1CCC(C(N)(CCCCB(O)O)C(=O)O)CC1 (stereo not drawn) [Example 101-A, 2-amino-6-borono-2-(1-propylpiperidin-4-yl)hexanoic acid dihydrochloride]
0.1 to 250	0.1 to 250	–	–	NC(CCCCB(O)O)(C(=O)O)C1CCN(Cc2cccc(OC(F)(F)F)c2)CC1 (stereo not drawn) [Example 103-A, 2-amino-6-borono-2-(1-(3-(trifluoromethoxy)benzyl)piperidin-4-yl)hexanoic acid dihydrochloride]
0.1 to 250	0.1 to 250	–	–	NC(CCCCB(O)O)(C(=O)O)C1CCN(Cc2csc3ccccc23)CC1 (stereo not drawn) [Example 104-A, 2-amino-2-(1-(benzo[b]thiophen-3-ylmethyl)piperidin-4-yl)-6-boronohexanoic acid dihydrochloride]
251 to 1000	251 to 1000	–	–	NC(CCCCB(O)O)(C(=O)O)C1CCN(Cc2cccc(C(=O)O)c2)CC1 (stereo not drawn) [Example 105-A, 3-((4-(1-amino-5-borono-1-carboxypentyl)piperidin-1-yl)methyl)benzoic acid dihydrochloride]
251 to 1000	251 to 1000	–	–	N#Cc1cccc(CN2CCC(C(N)(CCCCB(O)O)C(=O)O)CC2)c1 (stereo not drawn) [Example 106-A, 2-amino-6-borono-2-(1-(3-cyanobenzyl)piperidin-4-yl)hexanoic acid dihydrochloride]
–	–	1000 to 2000	1000 to 2000	COC[C@H]1CCCN1CC[C@](N)(CCCCB(O)O)C(=O)O [compound 3, (R)-2-amino-6-borono-2-(2-((R)-2-(methoxymethyl)pyrrolidin-1-yl)ethyl)hexanoic acid dihydrochloride]
–	–	251 to 1000	251 to 1000	N[C@](CCCCB(O)O)(CCN1CCC(O)CC1)C(=O)O [compound 4, (R)-2-amino-6-borono-2-(2-(4-hydroxypiperidin-1-yl)ethyl)hexanoic acid dihydrochloride]
–	–	2000 to 5000	1000 to 2000	N[C@](CCCCB(O)O)(CCN1CCSCC1)C(=O)O [compound 8, (R)-2-amino-6-borono-2-(2-thiomorpholinoethyl)hexanoic acid dihydrochloride]
–	–	251 to 1000	0.1 to 250	N[C@](CCCCB(O)O)(CCN1CCC(CCO)CC1)C(=O)O [compound 9, (R)-2-amino-6-borono-2-(2-(4-(2-hydroxyethyl)piperidin-1-yl)ethyl)hexanoic acid dihydrochloride]
–	–	251 to 1000	0.1 to 250	N[C@](CCCCB(O)O)(CCN1CCC[C@H]1CO)C(=O)O [compound 10, (R)-2-amino-6-borono-2-(2-((S)-2-(hydroxymethyl)pyrrolidin-1-yl)ethyl)hexanoic acid]
–	–	1000 to 2000	251 to 1000	NC(CCCCB(O)O)(CCN1CCCC1)C(=O)O (stereo not drawn) [compound 16, 2-amino-6-borono-2-(2-(pyrrolidin-1-yl)ethyl)hexanoic acid]
–	–	2000 to 5000	2000 to 5000	NC(CCCCB(O)O)(CCN1CCN(c2ncccn2)CC1)C(=O)O (stereo not drawn) [compound 17, 2-Amino-6-borono-2-[2-(4-pyrimidin-2-yl-piperazin-1-yl)ethyl]-hexanoic acid trihydrochloride]
–	–	2000 to 5000	2000 to 5000	CN(CCC(N)(CCCCB(O)O)C(=O)O)CC(=O)O (stereo not drawn) [compound 18, 2-amino-6-borono-2-(2-((carboxymethyl)(methyl)amino)ethyl)hexanoic acid dihydrochloride]
–	–	251 to 1000	251 to 1000	NC(CCCCB(O)O)(CCN1CCC(CO)CC1)C(=O)O (stereo not drawn) [compound 22, 2-amino-6-borono-2-(2-(4-(hydroxymethyl)piperidin-1-yl)ethyl)hexanoic acid]
–	–	251 to 1000	251 to 1000	CCN(CC)C(=O)C1CCCN(CCC(N)(CCCCB(O)O)C(=O)O)C1 (stereo not drawn) [compound 23, 2-Amino-6-borono-2-[2-(3-diethylcarbamoyl-piperidin-1-yl)-ethyl]-hexanoic acid dihydrochloride]
